Measurements published in patent US20230055582A1, “COMPOSITIONS AND METHODS FOR TREATMENT OF INFLAMMATORY CONDITIONS AND DISEASES OF THE SKIN” (priority 2020, published 2023).
Values joined by “and” are separate entries in the source; they are usually repeats but may differ in a detail not shown here. Equal values may be shown once.

How the values were obtained:
[1] = tested on: MCP-1; assay: MCP-1 in medium of poly I:C treated HaCaT cells, multiplex immunoassay; type: cell-based, human; settings: for MCP-1: 24 h
Procedure: (§1) CBD, PEA and DB. CBD was purchased from Sigma Israel. […] CBD was 3.18 mM solution in ethanol. DB was in pure liquid form. PEA was in powder form.
(§2) Procedure and administration of active compounds. […] Samples were frozen and shipped on dry ice.
(§3) Analysis of cytokine content. Samples were shipped to Eve Technologies, Calgary (Canada) for analysis. Samples were analyzed using Human Focused 13-Plex Discovery Assay, a Multiplex immunoassay with fluorometric detection. Preliminary tests were conducted in order to determine samples dilution. The cytokines measured were granulocyte-macrophage colony-stimulating factor (GM-CSF), interferon gamma (IFNy), interleukin 1 beta (IL-1B), IL-2, IL-4, IL-5, IL-6, IL-8, IL-10, IL-12, IL-13, monocyte chemoattractant protein-1 (MCP-1) and tumor necrosis factor alpha (TNF-α). Results were calculated only for GM-CSF, IL-6, IL-8, MCP-1 and TNF-α.

[2] = tested on: TNF-α; assay: TNF-α in medium of poly I:C treated HaCaT cells, multiplex immunoassay; type: cell-based, human; settings: 24 h
Procedure: as §1, §2, §3

[3] = tested on: GM-CSF; assay: GM-CSF in medium of poly I:C treated HaCaT cells, multiplex immunoassay; type: cell-based, human; settings: 24 h
Procedure: as §1, §2, §3

[4] = tested on: HaCaT cells; assay: Cell viability, crystal violet assay, poly I:C treated HaCaT cells; settings: for Cell viability: 24 h; for Cell viability increase: vs poly I:C alone
Procedure: (§4) Cell culture. The human keratinocyte cell line HaCaT was a kind gift from Prof. Joseph Kost (Department of Chemical Engineering, Ben-Gurion University of the Negev, Israel). Cells were cultured in Dulbecco's Modified Eagle Medium (DMEM) (Biological Industries, Kibbutz Beit-Haemek, Israel) supplemented with 1% antibiotic-antimycotic (Tivan Biotech, Kfar-Saba, Israel), 1mM sodium pyruvate, and 10% fetal bovine serum (FBS) (Biological Industries), and were maintained in an incubator with 5% CO2 at 37° C.
(§5) CBD was purchased from Sigma Israel. […] PEA was in powder form. A 30 mM stock solution was made by dissolving PEA in dimethyl sulfoxide (DMSO). […] All stocks were filtered using a 0.2 μm filter before use and further diluted to the required concentration in cell medium. Vehicle (control) solutions contained the corresponding amount of DMSO (0.007%).
90,000 cells/well were plated on 12-well plates and allowed to attach at 37° C. for 24 hours. Subsequently, the wells were washed with phosphate-buffered saline (PBS) and the medium was replaced with a medium containing either vehicle (control) or poly I:C. […] The wells were then incubated for further 24 h and 50μL samples were drawn for analysis of cytokines. Samples were frozen and shipped on dry ice.
Cell viability assay. Cell viability was measured using a crystal violet assay. 90,000 cells/well were plated on 12-well plates and allowed to attach at 37° C. for 24 hours. […] 24 hours later medium was aspirated, and cells were washed twice with PBS. 500 μL of crystal violet staining solution (0.5% (w/v) crystal violet powder, 20% methanol) was added to each well, followed by incubation for 30 min at room temperature. The staining solution was discarded, the plates were washed 5 times with distilled water and dried, and 500 μL of 10% acetic acid (v/v) was added to each well. Absorbance was measured at 595 nm.

[5] = tested on: IL-8; assay: IL-8 in medium of poly I:C treated HaCaT cells, multiplex immunoassay; type: cell-based, human; settings: 24 h
Procedure: (§6) CBD was purchased from Sigma Israel. […] PEA was in powder form.
(§7) Samples were frozen and shipped on dry ice.
as §3, with “(TNF-α).” for “(TNF-α). Results were calculated only for GM-CSF, IL-6, IL-8, MCP-1 and TNF-α.”

[6] = tested on: IL-6; assay: IL-6 in medium of poly I:C treated HaCaT cells, multiplex immunoassay; type: cell-based, human; settings: 24 h
Procedure: as §6, §7
as §3, with “(TNF-α).” for “(TNF-α). Results were calculated only for GM-CSF, IL-6, IL-8, MCP-1 and TNF-α.”

[7] = tested on: HaCaT cells; assay: Toxicity on HaCaT cells, qualitative light-microscope assessment after 50 hours; type: cell-based, human
Procedure: as §1
Toxicity. HaCaT cells were incubated in 12 wells plates until 60-70% confluency was achieved. Subsequently, the cells were washed and incubated with medium containing PEA, DB or CBD. After 50 hours of incubation, the wells were observed under a light microscope and toxicity of the active compounds was assessed qualitatively by comparing the treated cells to controls incubated with vehicle. As concluded, under the conditions tested, PEA can be safely used in concentration of up to 50 μM, DB is non-toxic at concentrations of up to 0.01%, and CBD is non-toxic at concentration of up to 15 μM.

[8] = tested on: GM-CSF, IL-6, IL-8, MCP-1 and TNF-α; assay: Five inflammatory cytokines taken together, poly I:C treated HaCaT cells; type: cell-based, human; settings: higher dose (10 μM) with poly I:C 100 μg/mL
Procedure: as §4, §5
90,000 cells/well were plated on 12-well plates and allowed to attach at 37° C. for 24 hours. […]
Analysis of cytokine content. […] Samples were analyzed using Human Focused 13-Plex Discovery Assay, a Multiplex immunoassay with fluorometric detection. […] The cytokines measured were granulocyte-macrophage colony-stimulating factor (GM-CSF), interferon gamma (IFNy), interleukin 1 beta (IL-1B), IL-2, IL-4, IL-5, IL-6, IL-8, IL-10, IL-12, IL-13, monocyte chemoattractant protein-1 (MCP-1) and tumor necrosis factor alpha (TNF-α).

[9] = poly I:C 20 μg/mL, percent of control values
[10] = poly I:C 50 μg/mL, percent of control values
[11] = poly I:C 100 μg/mL, percent of control values
[12] = PEA 0.2 μM with poly I:C 100 μg/mL
[13] = PEA 0.2 μM with poly I:C 100 μg/mL, percent of poly I:C alone
[14] = PEA 2 μM with poly I:C 100 μg/mL
[15] = PEA 2 μM with poly I:C 100 μg/mL, percent of poly I:C alone
[16] = CBD 3 μM with poly I:C 100 μg/mL
[17] = CBD 3 μM with poly I:C 100 μg/mL, percent of poly I:C alone
[18] = CBD 10 μM with poly I:C 100 μg/mL
[19] = CBD 10 μM with poly I:C 100 μg/mL, percent of poly I:C alone

polyinosinic:polycytidylic acid [Poly I:C]
MCP-1 ([1]; poly I:C 20 μg/mL alone): 369.54 pg/mL
MCP-1 [1, 9]: 704.95%
MCP-1 ([1]; poly I:C 50 μg/mL alone): 711.76 pg/mL
MCP-1 [1, 10]: 1357.80%
MCP-1 ([1]; poly I:C 100 μg/mL alone): 1727.32 pg/mL
MCP-1 [1, 11]: 3295.15%
increase in cytokine concentration, MCP-1 ([1]; poly I:C 100 μg/mL, vs control): up to 33 fold
TNF-α ([2]; poly I:C 20 μg/mL alone): 2.74 pg/mL
TNF-α ([2]; poly I:C 20 μg/mL, percent of control values, control below the standard curve): 846.39%
TNF-α ([2]; poly I:C 50 μg/mL alone): 3.81 pg/mL
TNF-α ([2]; poly I:C 50 μg/mL, percent of control values, control below the standard curve): 1179.38%
TNF-α ([2]; poly I:C 100 μg/mL alone): 6.47 pg/mL and 6.470 pg/mL
TNF-α ([2]; poly I:C 100 μg/mL, percent of control values, control below the standard curve): 2001.03%
GM-CSF ([3]; poly I:C 20 μg/mL alone): 53.09 pg/mL
GM-CSF [3, 9]: 266.74%
GM-CSF ([3]; poly I:C 50 μg/mL alone): 62.68 pg/mL
GM-CSF [3, 10]: 314.94%
GM-CSF ([3]; poly I:C 100 μg/mL alone): 76.98 pg/mL
GM-CSF [3, 11]: 386.75%
Cell viability ([4]; poly I:C 20 μg/mL alone): 1.827 O.D.
Cell viability ([4]; poly I:C 50 μg/mL alone): 1.714 O.D.
Cell viability ([4]; poly I:C 100 μg/mL alone): 1.259 O.D.
IL-8 ([5]; poly I:C 20 μg/mL alone): 657.01 pg/mL
IL-8 [5, 9]: 330.64%
IL-8 ([5]; poly I:C 50 μg/mL alone): 729.48 pg/mL
IL-8 [5, 10]: 367.11%
IL-8 ([5]; poly I:C 100 μg/mL alone): 918.50 pg/mL
IL-8 [5, 11]: 462.24%
IL-6 ([6]; poly I:C 20 μg/mL alone): 14.07 pg/mL
IL-6 [6, 9]: 523.57%
IL-6 ([6]; poly I:C 50 μg/mL alone): 19.50 pg/mL
IL-6 [6, 10]: 725.81%
IL-6 ([6]; poly I:C 100 μg/mL alone): 35.14 pg/mL
IL-6 [6, 11]: 1307.82%

CCCCCCCCCCCCCCCC(=O)NCCO [PEA, palmitoylethanolamide]
MCP-1 [1, 12]: 1345.28 pg/mL
MCP-1 [1, 13]: 77.88%
MCP-1 [1, 14]: 1554.20 pg/mL
MCP-1 [1, 15]: 89.98%
TNF-α [2, 12]: 4.673 pg/mL
TNF-α [2, 13]: 72.23%
TNF-α [2, 14]: 4.470 pg/mL
TNF-α [2, 15]: 69.09%
GM-CSF [3, 12]: 60.36 pg/mL
GM-CSF [3, 13]: 78.42%
GM-CSF [3, 14]: 57.54 pg/mL
GM-CSF [3, 15]: 74.75%
Cell viability [4, 12]: 1.443 O.D.
Cell viability [4, 14]: 1.413 O.D.
Cell viability ([4]; human, 0.2 μM): 114.66%
Cell viability ([4]; human, 2 μM): 112.28%
IL-8 [5, 12]: 810.38 pg/mL
IL-8 [5, 13]: 88.23%
IL-8 [5, 14]: 773.38 pg/mL and 773.27 pg/mL
IL-8 [5, 15]: 84.19%
IL-6 [6, 12]: 27.43 pg/mL
IL-6 [6, 13]: 78.08%
IL-6 [6, 14]: 27.23 pg/mL
IL-6 [6, 15]: 77.49%
non-toxic (safely used) concentration ([7]; human, 50 h): up to 50 μM

C=C(C)[C@@H]1CCC(C)=C[C@H]1c1c(O)cc(CCCCC)cc1O [CBD, 2-[(1R,6R)-6-isopropenyl-3-methylcyclohex-2-en-1-yl]-5-pentylbenzene-1,3-diol]
MCP-1 [1, 16]: 956.97 pg/mL and 945.97 pg/mL
MCP-1 [1, 17]: 54.77%
MCP-1 [1, 18]: 272.60 pg/mL
MCP-1 [1, 19]: 15.78%
TNF-α [2, 16]: 3.277 pg/mL
TNF-α [2, 17]: 50.64%
TNF-α [2, 18]: 1.517 pg/mL
TNF-α [2, 19]: 23.44%
GM-CSF [3, 16]: 56.44 pg/mL
GM-CSF [3, 17]: 73.32%
GM-CSF [3, 18]: 49.55 pg/mL
GM-CSF [3, 19]: 64.37%
Cell viability increase ([4]; 3 μM with poly I:C 100 μg/mL): 5.5%
Cell viability increase ([4]; 10 μM with poly I:C 100 μg/mL): 15.3%
Cell viability [4, 16]: 1.328 O.D.
Cell viability [4, 17]: 105.50%
Cell viability [4, 18]: 1.451 O.D.
Cell viability [4, 19]: 115.29%
IL-8 [5, 16]: 643.44 pg/mL
IL-8 [5, 17]: 70.05%
IL-8 [5, 18]: 335.44 pg/mL
IL-8 [5, 19]: 36.52%
IL-6 [6, 16]: 18.95 pg/mL
IL-6 [6, 17]: 53.94% and 53.04%
IL-6 [6, 18]: 12.15 pg/mL
IL-6 [6, 19]: 34.57%
All cytokines measured reduced [8]: 60-80%
Toxicity ([7]; 5 μM, 50 hours): non toxic
Toxicity ([7]; 15 μM, 50 hours): non toxic
Toxicity ([7]; 45 μM, 50 hours): very toxic
non-toxic (safely used) concentration ([7]; HaCaT cells, 50 hours, under the conditions tested): up to 15 μM
